Test results as given in patent US20230129485A1, “SYSTEM AND METHOD FOR DETERMINING MATERIAL PROPERTIES OF MOLECULAR SYSTEMS FROM AN AB-INITIO PARAMETERIZED FORCE-FIELD” (InterX, Inc., priority 2021, published 2023).
Read-outs that look alike come from different tables or passages of the source.

Tests used:
[1] = Free energy of hydration predicted with the QM-parameterized force field model (ARROW FF), classical MD and PIMD simulation in a water box; conditions: for Arrow error: Table 5, error of Arrow PIMD8 hydration free energy vs experiment; for Arrow PIMD8 Error: absolute error vs Exp (hydration)
Description: For example, the example QM-parameterized force-field molecular simulation process 400 can use Bennett Acceptance Ratio (BAR) to compute the free energy of hydration/solvation of the molecule in water or any other solvent. In some implementations, the analysis of the molecular dynamics simulations includes analysis, predication, and visualization of ensemble properties of atoms/molecules from atomic and molecular trajectories using the optimized parameters of the QM-parameterized force field model (i.e., the quantum mechanics rule-based reasoning technique) and the QM-parameterized force field model.
(§1) In some simulations of the QM-parameterized force field molecular simulation process, the molecules were placed in a water or cyclohexane box of size 32×32×32 Å3. Particle-Mesh Ewald (PME) algorithm was used to compute the electrostatic interactions. A 32×32×32 grid mesh and 5th power spline interpolation order can be used to compute the inverse PME sum. 9 Å cutoffs were used to compute the direct PME sum as well as the exchange and dispersion interactions. Bulk corrections were applied to account for distance cut-off of dispersion interactions. Solvation free energies were computed by decoupling the interactions between the solute and the solvent molecules. Electrostatic, exchange-repulsion and dispersion interactions were switched off simultaneously using a lambda-dependent scaling (a scaling factor power=2 was used) and a soft-coring algorithm (maximal soft-coring radius=1.5 Å, soft-coring radius scaling factor power=1). 15 lambda points unequally spaced (X=0, 0.05, 0.1, 0.2, 0.3, 0.4, 0.5, 0.6, 0.7, 0.75, 0.8, 0.85, 0.9, 0.95, 1.0) were used to decouple the solute-solvent intermolecular interactions.
(§2) In some simulations of the QM-parameterized force field molecular simulation process, energy minimization (10,000 steps) using the steepest descent algorithm was initially performed on all the simulation systems. This was followed by a 50 ps equilibration and 1 ns production runs in the isothermal-isobaric ensemble (NPT). […] Pressure was maintained at 1 atm using a MTTK barostat (relaxation time=5 ps). A Multiple Time Step (MTS) algorithm was used to integrate the equations of motion both for the classical and path-integral runs. […] The calculations were performed using the QM-parameterized force field model.
Using the QM-parameterized force field model, the QM-parameterized force field device can compute or predict the solvation free energies using both the Bennett acceptance ratio (BAR) and thermodynamic integration (TI) method with <dH/dλ> values interpolated by cubic splines. […] FIG. 7A illustrates a <dH/dλ> dependence for desolvation of Anthracene in water. FIG. 7B illustrates accumulated statistical errors for TI calculations of AG desolvation of Anthracene in water.

[2] = Free energy of hydration predicted by General Amber Force Field (GAFF), from literature; conditions: Table 5; error of GAFF hydration free energy vs experiment
[3] = Free energy of hydration predicted by polarizable AMOEBA force field, from literature; conditions: Table 5; error of AMOEBA hydration free energy vs experiment
[4] = Free energy of hydration by COSMO implicit solvent model (MolPro ver. 2012); conditions: absolute error vs Exp (hydration)
Procedure: (§3) Due to unavailability of free energy data for the original COSMO model, the free energies of solvation for the molecule dataset are calculated using MolPro ver. […] The comparisons to other implicit solvent models such as SMD, PCM and COSMO-RS are limited to the overlap of the molecules computed using QM-parameterized force field model. The free energies of hydration as predicted by these implicit solvent models (SMD, PCM) were received.

[5] = experimental, cited from earlier work; for Exp (hydration): Table 5
[6] = Table 5; free energy of hydration, GAFF prediction taken from literature; cited from earlier work
[7] = Table 5; free energy of hydration, AMOEBA prediction taken from literature; cited from earlier work
[8] = Free energy of hydration by Solvation Model Dielectric (SMD) implicit solvent model; conditions: absolute error vs Exp (hydration)
Procedure: as §3

[9] = Free energy of hydration by Polarizable Continuum Model (PCM); conditions: absolute error vs Exp (hydration)
Procedure: as §3

[10] = Free energy of hydration by COSMO-RS
Procedure: as §3

[11] = implicit solvent model, values received; cited from earlier work
[12] = implicit solvent model, values received; cited from earlier work; remark: listed apart in the source
[13] = Free energy of solvation in cyclohexane predicted with the QM-parameterized force field model (ARROW FF), MD and PIMD; conditions: Table 4
Description: Cyclohexane (CHEX) is nonpolar and equilibrates relatively quickly.
as §1, with “Particle-Mesh” for “In some simulations of the QM-parameterized force field molecular simulation process, the molecules were placed in a water or cyclohexane box of size 32×32×32 Å3. Particle-Mesh”
as §2
Using the QM-parameterized force field model, the QM-parameterized force field device can compute or predict the solvation free energies using both the Bennett acceptance ratio (BAR) and thermodynamic integration (TI) method with <dH/dλ> values interpolated by cubic splines.

[14] = CHEX/H2O partition coefficient (log D) predicted with the QM-parameterized force field model (ARROW FF)
Description: In some simulations, the example QM-parameterized force-field molecular simulation process includes using the functional form of the bonded interactions, with force constants and equilibrium values fitted to QM energies at the MP2/aug-cc-pVTZ level of theory. In some simulations, solvents of water and cyclohexane are selected. Cyclohexane (CHEX) is nonpolar and equilibrates relatively quickly. Reliable experimental data for both CHEX solvation free energies, as well as for the CHEX/H2O partition coefficients are used in these simulations.
In some example simulations, solutes containing neutral chemical functional groups, for example carboxylic acids, alkanes, alkenes, aromatics, aldehydes, ketones, alcohols, amides, esters, thiols, sulfides, disulfides and heterocycles, are used. The simulations were performed independently by four groups using their own respective computational resources and architectures, and then averaged. FIGS. 9A-9C show solvation and hydration free energies predictions of various solutes, using the QM-parameterized force field model, in some embodiments.
The straight line is a line of agreement between experimental and simulated/predicted values, and the gray bar is the range or chemical accuracy. […] The molecules here are a subset of those in a) because only those with experimental values for CHEX solvation can be included.

[15] = experimental, cited from earlier work
[16] = CHEX/H2O partition coefficient, experimental, cited from earlier work
[17] = Table 3, absolute error of MD hydration free energy vs experiment
[18] = Table 3, absolute error of PIMD8 hydration free energy vs experiment
[19] = Table 3, free energy of hydration

Row | Structure (SMILES) | water Arrow MD Error [1, 17] [kcal/mol] | water Arrow PIMD8 Error [1, 18] [kcal/mol] | Arrow error [1] [kcal/mol] | Arrow PIMD8 Error [1] [kcal/mol] | GAFF error [2] [kcal/mol] | AMOEBA error [3] [kcal/mol] | COSMO/Molpro Error [4] [kcal/mol] | water Exp (hydration) [5, 19] [kcal/mol] | Exp (hydration) ([5]; free energy of hydration) [kcal/mol] | GAFF [6] [kcal/mol] | AMOEBA [7] [kcal/mol] | SMD Error [8] [kcal/mol] | PCM Error [9] [kcal/mol] | COSMO-RS error [10] [kcal/mol] | SMD free energy of hydration [11] [kcal/mol] | PCM free energy of hydration [12] [kcal/mol] | further results
1 | CCCCS [1-Butanethiol] | 1.15 | 0.50 | 0.50 | 0.50 | 0.69 | 0.87 | 3.06 | -0.99 | -0.99 | -1.68 | -0.12 |  |  |  |  |  | 
2 | C=CCC [But-1-ene] | 0.54 | 0.25 | 0.25 | 0.25 | 1.10 | 0.55 | 3.14 | 1.38 | 1.38 | 2.48 | 0.83 | 0.18 | 2.18 | 0.36 | 1.20 | -0.80 | 
3 | COC [DiMethylEther] | 0.87 | 0.37 | 0.37 | 0.37 | 1.06 | 0.31 | 1.99 | -1.91 | -1.91 | -0.85 | -2.22 | 1.31 | 0.11 |  | -0.60 | -1.80 | 
4 | CSC [DiMethylSulfide] | 0.59 | 0.16 | 0.16 | 0.16 | 0.31 | 0.31 | 2.61 | -1.54 | -1.54 | -1.85 | -1.85 | 1.24 | 0.56 |  | -0.30 | -2.10 | 
5 | c1c[nH]cn1 [Imidazole] | 0.81 | 0.29 | 0.29 | 0.29 | 1.75 | 0.65 | 3.71 | -9.6 | -9.60 | -7.85 | -10.25 | 0.60 | 2.90 | 1.30 | -9.00 | -6.70 | 
6 | CNC [dimethylamine] | 1.38 | 0.23 | 0.23 | 0.23 | 1.19 | 1.26 | 0.57 | -4.30 | -4.30 | -3.11 | -3.04 | 1.10 | 2.30 | 2.12 | -3.20 | -2.00 | 
7 | CCC(=O)O [propionicacid] | 0.24 | 0.25 |  | 0.25 |  |  | 2.03 | -6.46 |  |  |  | 0.96 | 2.16 | 0.15 | -5.50 | -4.30 | water Arrow MD Error ([1]; Table 4, error of MD hydration free energy vs experiment): 0.24 kcal/mol; water Arrow PIMD8 Error ([1]; Table 4, error of PIMD8 hydration free energy vs experiment): 0.25 kcal/mol; CHEX Arrow MD Error ([13]; error of MD cyclohexane solvation free energy vs experiment): 0.06 kcal/mol; CHEX Arrow PIMD4 Error ([13]; error of PIMD4 cyclohexane solvation free energy vs experiment): 0.18 kcal/mol; log D Arrow MD Error [14]: 0.22; log D Arrow PIMD Error [14]: 0.05; logD Arrow MD Error [14]: 0.22; logD Arrow PIMD Error [14]: 0.05; water Exp (hydration) ([5]; Table 4, neutral amino-acid analogues): -6.46 kcal/mol; CHEX Exp (solvation) ([15]; Table 3, free energy of solvation in cyclohexane): -3.32 kcal/mol; CHEX Exp (solvation) ([15]; Table 4, solvation free energy in cyclohexane): -3.32 kcal/mol; Exp (log D) ([16]; Table 3): −2.30; logD Exp (logD) ([16]; Table 4): −2.30
